Results taken from US20130203718A1 (priority 2010, published 2013).
“Also recorded” adds a separate entry of the source.

Target: T1, hPRB (Homo sapiens, UniProt P06401)
T1 sequence (P06401 1-933): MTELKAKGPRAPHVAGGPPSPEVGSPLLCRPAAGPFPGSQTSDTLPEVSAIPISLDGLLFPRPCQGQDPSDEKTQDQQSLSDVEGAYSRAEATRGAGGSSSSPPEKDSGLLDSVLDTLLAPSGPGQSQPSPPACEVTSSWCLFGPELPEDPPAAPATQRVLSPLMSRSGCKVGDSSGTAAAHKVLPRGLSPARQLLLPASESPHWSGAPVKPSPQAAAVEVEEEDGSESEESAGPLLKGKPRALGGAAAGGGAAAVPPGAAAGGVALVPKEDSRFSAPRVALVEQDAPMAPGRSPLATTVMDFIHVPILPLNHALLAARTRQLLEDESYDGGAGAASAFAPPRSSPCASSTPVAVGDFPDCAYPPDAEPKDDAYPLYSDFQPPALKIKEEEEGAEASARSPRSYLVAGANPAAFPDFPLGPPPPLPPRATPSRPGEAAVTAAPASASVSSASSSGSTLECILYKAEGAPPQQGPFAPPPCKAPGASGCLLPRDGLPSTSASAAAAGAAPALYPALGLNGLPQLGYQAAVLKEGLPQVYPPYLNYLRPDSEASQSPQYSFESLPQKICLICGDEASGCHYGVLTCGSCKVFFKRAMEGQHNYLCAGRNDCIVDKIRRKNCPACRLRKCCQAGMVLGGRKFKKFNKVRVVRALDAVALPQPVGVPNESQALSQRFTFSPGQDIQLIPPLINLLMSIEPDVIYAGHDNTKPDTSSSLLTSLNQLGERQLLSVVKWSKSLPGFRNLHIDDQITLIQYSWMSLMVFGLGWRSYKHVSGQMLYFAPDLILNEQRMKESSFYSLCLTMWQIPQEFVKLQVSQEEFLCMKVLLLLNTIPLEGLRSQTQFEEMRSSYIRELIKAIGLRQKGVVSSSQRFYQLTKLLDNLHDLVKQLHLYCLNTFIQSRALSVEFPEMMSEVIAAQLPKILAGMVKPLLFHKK
Assay: PR transactivation assay (GRE2-Luc) in HEK293T cells transiently expressing hPRB
Type: cell-based
Design: expressed in transfected cells; host or cells: HEK 293T
Conditions: APRn 1 μM
How it was run: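 HEK293T cells transiently transfected by calcium phosphate with human PRB, GRE2-Luc reporter and β-gal control, grown in dextran-charcoal-treated FCS. Luciferase measured in lysates; agonist efficacy at 1 μM compound as ratio of luciferase activities ×100, antagonist efficacy as 100 minus that ratio; mean±SEM of 3-5 experiments.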

[1] = series 2-4, stated for both HEK293T and MDA-MB-231 iPRAB cells, FIGS. 3-8
[2] = series 1 (no C3 substituent), HEK293T, FIG. 1

SMILES	hPRB agonist/antagonist character (in words) [1]	hPRB agonist/antagonist character (in words) [2]
C[C@]12CCC3C(CC=C4C[C@@H](F)CC[C@@H]43)C1CCC2=O (stereo partly drawn) [APR-47, 3β-Fluoro-19-nor-androst-5-en-17-one]	efficient hPRB antagonists	–
CC#C[C@]1(O)CCC2C3CC[C@H]4CCCC[C@]4(C)C3CC[C@@]21C (stereo partly drawn) [APR-42, 17α-(1-Propynyl)-5α-androstan-17β-ol]	–	full antagonists
CC#C[C@]1(O)CCC2C3CC[C@H]4CCCC[C@@H]4C3CC[C@@]21C (stereo partly drawn) [APR-54, 17α-(1-Propynyl)-19-nor-5-androstan-17β-ol]	–	full antagonists
CC(=O)[C@H]1CC[C@H]2[C@@H]3CC=C4C[C@@H](F)CC[C@]4(C)[C@H]3CC[C@]12C [APR-16, 3β-Fluoropregn-5-en-20-one]	efficient hPRB antagonists; also recorded: agonist activity of this molecule is completely abolished	–
